Assay results: ChEMBL document CHEMBL1208724, “A new group of oxime carbamates as reversible inhibitors of fatty acid amide hydrolase” (Bioorg Med Chem Lett, 2010)

Biological target: T1, Fatty-acid amide hydrolase 1 (Mus musculus, UniProt O08914)
T1 sequence (O08914 whole entry): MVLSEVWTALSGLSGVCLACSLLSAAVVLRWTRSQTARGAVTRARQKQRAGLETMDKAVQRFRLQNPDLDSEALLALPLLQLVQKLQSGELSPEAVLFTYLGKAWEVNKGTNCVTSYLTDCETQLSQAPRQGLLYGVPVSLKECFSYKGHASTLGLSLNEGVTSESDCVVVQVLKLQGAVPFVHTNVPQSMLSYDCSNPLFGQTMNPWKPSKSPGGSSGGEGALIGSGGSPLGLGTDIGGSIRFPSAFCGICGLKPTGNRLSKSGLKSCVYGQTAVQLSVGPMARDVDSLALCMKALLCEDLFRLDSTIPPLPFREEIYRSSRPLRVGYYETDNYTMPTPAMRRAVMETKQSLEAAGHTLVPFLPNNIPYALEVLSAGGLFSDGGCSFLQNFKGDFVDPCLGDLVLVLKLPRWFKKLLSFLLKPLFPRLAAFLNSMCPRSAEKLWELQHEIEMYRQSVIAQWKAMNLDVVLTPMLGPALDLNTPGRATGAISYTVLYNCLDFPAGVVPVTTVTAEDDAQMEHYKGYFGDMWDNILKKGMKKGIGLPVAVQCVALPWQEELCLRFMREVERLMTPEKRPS
Assay: Inhibition of mouse brain FAAH assessed as conversion of [3H-ethanolamine]AEA to [3H]ethanolamine by scintillation counting

IC50: 100 nM
SMILES: C/C(=N\OC(=O)NCCCCCc1ccccc1)c1cccc(-c2ccccc2)c1
